Measurements taken from US11878966B2, “Substituted 4-benzyl and 4-benzoyl piperidine derivates” (89BIO LTD, priority 2015, dated 2024).

target: T1, recombinant human baculovirus-expressed GST-tagged FASN (Homo sapiens, UniProt P49327); assay: FASN enzyme activity assay: fluorescence-based detection of CoA with CPM; type: biochemical; details: 5 nM FASN, 150 μM NADPH, 10 μM acetyl-CoA, 25 μM malonyl-CoA, 90 minutes incubation
T1 construct: GST; host or cells: baculovirus expression system (insect cells implied)
Text: FASN Enzyme activity may be determined by detecting coenzyme A (CoA), a product of FASN-catalyzed synthesis of palmitate from acetyl-CoA and malonyl-CoA with NADPH as a cofactor. The assay is fluorescence-based and measures the interaction of free CoA with 7-diethylamino-3-(4′-malemimidylphenyl)-4-methylcoumarin (CPM; Life Technologies, CA) as described in Chung et al (2008). The coumarin derivative CPM contains a thiol-reactive maleimide that becomes fluorescent upon interaction with the sulfhydryl group of CoA.
For the example compounds described herein, the reaction was performed in 384-well low volume non-binding platews (Corning, NY) using recombinant human baculovirus-expressed GST-tagged FASN. The 20-μL assay mixture contained 50 mM HEPES (pH 7.5), 5 nM FASN, 150 μM NADPH (Sigma, St. Louis, MO), 10 μM acetyl-CoA (Sigma), 25 μM malonyl-CoA (Sigma) and test compound [diluted in dimethyl sulfoxide (DMSO); 0.5% DMSO final in assay after 100 nL addition]. See, Chung et al.; “A fluorescence-based thiol quantification assay for ultra-high-throughput screening for inhibitors of coenzyme A production,” Assay Drug Dev Tech 2008; 6:361-374.
The reaction was initiated by adding malonyl-CoA, followed by incubation for 90 minutes at […]. A stock solution of the CPM reagent was prepared in DMSO al 66 μM and stored at […]. To detect CoA produced in the FASN reaction, the CPM stock was diluted to 50 μM in 70% ethanol and added at 4 μL/well to the assay place. The reaction mixture was then incubated for 30 minutes. Fluorescence was measured using the EnVision™ 2102 multi-label plate reader (PerkinElmer, Waltham, MA) utilizing a general dual mirror, a 390 nm excitation filter and a 530 nm emission filter. Data analysis was performed using ActivityBase (IDBS, Guilford, UK). IC50 values were calculated by plotting the percent inhibition versus log 10 of the concentration of the compound, and fitting to the nonlinear regression sigmoidal dose-response (variable slope) equation in XLFit (IDBS).

T1 sequence (P49327 whole entry): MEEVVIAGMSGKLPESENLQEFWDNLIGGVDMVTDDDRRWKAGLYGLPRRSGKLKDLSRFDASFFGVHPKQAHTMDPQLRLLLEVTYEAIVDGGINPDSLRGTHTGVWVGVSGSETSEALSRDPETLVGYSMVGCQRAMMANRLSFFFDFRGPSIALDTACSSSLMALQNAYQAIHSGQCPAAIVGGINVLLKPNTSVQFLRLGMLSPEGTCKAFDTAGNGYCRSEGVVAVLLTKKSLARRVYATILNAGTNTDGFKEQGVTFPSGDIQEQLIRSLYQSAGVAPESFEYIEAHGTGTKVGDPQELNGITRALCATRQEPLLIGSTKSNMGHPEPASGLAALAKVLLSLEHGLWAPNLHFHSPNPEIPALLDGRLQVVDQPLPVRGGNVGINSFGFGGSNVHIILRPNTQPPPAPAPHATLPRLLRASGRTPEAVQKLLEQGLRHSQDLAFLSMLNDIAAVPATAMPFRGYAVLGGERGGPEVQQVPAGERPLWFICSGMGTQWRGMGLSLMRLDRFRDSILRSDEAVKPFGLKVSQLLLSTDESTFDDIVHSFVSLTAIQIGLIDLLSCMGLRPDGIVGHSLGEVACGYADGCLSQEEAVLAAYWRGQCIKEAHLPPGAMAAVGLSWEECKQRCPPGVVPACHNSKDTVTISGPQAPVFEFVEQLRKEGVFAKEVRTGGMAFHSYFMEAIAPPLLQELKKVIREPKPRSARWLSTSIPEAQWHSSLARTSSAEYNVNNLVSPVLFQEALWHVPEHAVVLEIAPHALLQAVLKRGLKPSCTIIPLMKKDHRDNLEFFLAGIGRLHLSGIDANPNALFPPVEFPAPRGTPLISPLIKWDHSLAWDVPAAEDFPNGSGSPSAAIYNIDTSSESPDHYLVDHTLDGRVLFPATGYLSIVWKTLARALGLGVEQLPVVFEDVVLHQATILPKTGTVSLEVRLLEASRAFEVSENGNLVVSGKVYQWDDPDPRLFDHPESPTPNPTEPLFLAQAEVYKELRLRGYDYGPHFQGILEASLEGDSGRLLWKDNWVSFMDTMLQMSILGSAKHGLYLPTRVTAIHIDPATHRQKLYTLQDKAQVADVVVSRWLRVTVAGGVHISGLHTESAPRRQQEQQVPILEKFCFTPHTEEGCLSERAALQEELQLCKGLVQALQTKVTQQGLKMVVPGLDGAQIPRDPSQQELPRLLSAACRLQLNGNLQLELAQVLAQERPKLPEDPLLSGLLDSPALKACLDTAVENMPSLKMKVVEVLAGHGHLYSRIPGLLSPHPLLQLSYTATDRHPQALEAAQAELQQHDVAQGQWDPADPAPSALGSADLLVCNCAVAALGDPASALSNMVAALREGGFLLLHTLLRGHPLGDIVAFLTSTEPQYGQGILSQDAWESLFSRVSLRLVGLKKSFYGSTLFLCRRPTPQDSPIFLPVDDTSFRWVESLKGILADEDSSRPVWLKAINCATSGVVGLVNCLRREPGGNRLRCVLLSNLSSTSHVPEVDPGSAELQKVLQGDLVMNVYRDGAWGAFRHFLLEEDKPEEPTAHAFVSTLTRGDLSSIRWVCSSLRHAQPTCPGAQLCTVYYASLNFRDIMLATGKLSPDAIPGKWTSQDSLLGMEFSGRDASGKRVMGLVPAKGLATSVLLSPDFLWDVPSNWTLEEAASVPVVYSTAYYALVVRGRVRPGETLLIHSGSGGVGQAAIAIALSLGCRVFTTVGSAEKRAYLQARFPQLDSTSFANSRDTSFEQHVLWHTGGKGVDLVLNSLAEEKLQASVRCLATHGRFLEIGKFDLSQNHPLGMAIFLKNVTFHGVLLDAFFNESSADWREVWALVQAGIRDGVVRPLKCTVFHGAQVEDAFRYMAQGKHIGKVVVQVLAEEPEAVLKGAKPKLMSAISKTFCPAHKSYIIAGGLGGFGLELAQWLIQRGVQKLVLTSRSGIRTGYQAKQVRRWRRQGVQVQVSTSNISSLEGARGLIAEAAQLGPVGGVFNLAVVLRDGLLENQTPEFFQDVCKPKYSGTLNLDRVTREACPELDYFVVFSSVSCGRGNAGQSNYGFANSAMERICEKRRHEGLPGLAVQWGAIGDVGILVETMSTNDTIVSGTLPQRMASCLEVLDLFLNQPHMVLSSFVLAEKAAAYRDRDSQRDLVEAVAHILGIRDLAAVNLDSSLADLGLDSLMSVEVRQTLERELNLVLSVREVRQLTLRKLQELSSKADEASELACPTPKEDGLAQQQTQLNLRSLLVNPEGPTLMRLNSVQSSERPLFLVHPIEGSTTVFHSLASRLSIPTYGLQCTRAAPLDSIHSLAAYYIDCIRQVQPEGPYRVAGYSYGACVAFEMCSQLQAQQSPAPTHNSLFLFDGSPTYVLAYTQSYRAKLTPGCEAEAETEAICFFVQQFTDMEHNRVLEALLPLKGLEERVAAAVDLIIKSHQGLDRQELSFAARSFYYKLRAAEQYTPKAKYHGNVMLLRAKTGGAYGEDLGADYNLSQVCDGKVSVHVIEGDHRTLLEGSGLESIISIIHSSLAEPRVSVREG

SMILES | IC50 [nM]
CC(c1ccc(-c2cnc3ccccc3c2)cc1)C1CCN(C(=O)[C@H]2CCCO2)CC1 (stereo partly drawn) [Example 52, {4-[1-(4-Quinolin-3-yl-phenyl)-ethyl]-piperidin-1-yl}-(R)-tetrahydrofuran-2-yl-methanone] | 1 to 99
CC(C)C(=O)N1CCC(C2(c3ccc(-c4ccc5ccncc5c4)cc3)OCCO2)CC1 [Example 117, 1-{4-[2-(4-Isoquinolin-7-yl-phenyl)-1,3-dioxolan-2-yl]-piperidin-1-yl}-2-methyl-propan-1-one] | 1000 to 10000
CCONC(=O)N1CCC(Cc2ccc(-c3ccc4cccnc4c3C)cc2)CC1 [Example 232, N-ethoxy-4-[[4-(8-methyl-7-quinolyl)phenyl]methyl]piperidine-1-carboxamide] | 1 to 99
Cc1c(-c2ccc(C3(C4CCN(C(=O)[C@H]5CCCO5)CC4)CC3)cc2)ccc2cccnc12 [Example 79, (4-{1-[4-(8-Methylquinolin-7-yl)-phenyl]-cyclopropyl}-piperidin-1-yl)-(R)-tetrahydrofuran-2-yl-methanone] | 1000 to 10000
CCC(=O)N1CCC(C(C)(O)c2ccc(-c3ccc4cccnc4c3)cc2)CC1 (centres unmarked) [Example 126, 1-{4-[1-Hydroxy-1-(4-quinolin-7-yl-phenyl)-ethyl]-piperidin-1-yl}-propan-1-one] | 100 to 999
CCC(=O)N1CCC(Cc2ccc(-c3cc4ccccc4cn3)cc2)CC1 [Example 26, 1-[4-(4-Isoquinolin-3-yl-benzyl)-piperidin-1-yl]-propan-1-one] | 1000 to 10000
CCC(=O)N1CCC(C(C)c2ccc(-c3ccc4cccnc4c3C)cc2)CC1 (centres unmarked) [Example 62, 1-(4-{1-[4-(8-methylquinolin-7-yl)-phenyl]-ethyl}-piperidin-1-yl)-propan-1-one] | 1 to 99
O=C(C1CC1)N1CCC(C2(c3ccc(-c4ccc5ncccc5c4)cc3)OCCO2)CC1 [Example 99, Cyclopropyl-{4-[2-(4-quinolin-6-yl-phenyl)-1,3-dioxolan-2-yl]-piperidin-1-yl}-methanone] | 1000 to 10000
CCCC(=O)N1CCC(C2(c3ccc(-c4ccc5cccnc5c4)cc3)OCCO2)CC1 [Example 113, 1-{4-[2-(4-Quinolin-7-yl-phenyl)-1,3-dioxolan-2-yl]-piperidin-1-yl}-butan-1-one] | 1000 to 10000
Cc1c(-c2ccc(CC3(F)CCN(C(=O)[C@H]4CCCO4)CC3)cc2)cnc2ccccc12 [Example 181, (R)-(4-fluoro-4-(4-(4-methylquinolin-3-yl)benzyl)piperidin-1-yl)(tetrahydrofuran-2-yl)methanone] | 1 to 99
c1cnc2ccc(-c3ccc(C4(C5CCN(C6CCOCC6)CC5)OCCO4)cc3)cc2c1 [Example 108, 6-(4-{2-[1-(Tetrahydropyran-4-yl)-piperidin-4-yl]-1,3-dioxolan-2-yl}-phenyl)-quinoline] | 1000 to 10000
CCC(=O)N1CCC(Cc2ccc(-c3ccc4cccnc4c3Cl)cc2)CC1 [Example 29, 1-{4-[4-(8-Chloroquinolin-7-yl)-benzyl]-piperidin-1-yl}-propan-1-one] | 1 to 99
Cc1nccc2cc(-c3ccc(C4(C5CCN(C(=O)[C@H]6CCCO6)CC5)CC4)cc3)ccc12 [Example 78, (4-{1-[4-(1-Methylisoquinolin-6-yl)-phenyl]-cyclopropyl}-piperidin-1-yl)-(R)-tetrahydrofuran-2-yl-methanone] | 1000 to 10000
CCC(=O)N1CCC(C(C)(O)c2ccc(-c3ccc4cnccc4c3)cc2F)CC1 (centres unmarked) [Example 132, 1-{4-[1-(2-Fluoro-4-isoquinolin-6-yl-phenyl)-1-hydroxy-ethyl]-piperidin-1-yl}-propan-1-one] | 1 to 99
Cc1c(-c2ccc(CC3=CCN(C(=O)C4CC4)CC3)cc2)cnc2ccccc12 [Example 192, Cyclopropyl(4-(4-(4-methylquinolin-3-yl)benzyl)-5,6-dihydropyridin-1(2H)-yl)methanone] | 100 to 999
COC(=O)N1CCC(C(=O)c2ccc(-c3cnc4ccccc4c3)cc2F)CC1 [Example 144, 4-(2-Fluoro-4-quinolin-3-yl-benzoyl)piperidine-1-carboxylic Acid Methyl Ester] | 1000 to 10000
CC(c1ccc(-c2cnc3ccccc3c2Cl)cc1)C1CCN(C(=O)[C@H]2CCCO2)CC1 (mixture of isomers) [Example 77, (4-{1-[4-(4-Chloroquinolin-3-yl)-phenyl]-ethyl}-piperidin-1-yl)-(R)-tetrahydrofuran-2-yl-methanone] | 1 to 99
O=C([C@H]1CCCO1)N1CCC(C(F)(F)c2ccc(-c3cnc4ccccc4c3)cc2)CC1 [Example 18, {4-[Difluoro-(4-quinolin-3-yl-phenyl)-methyl]-piperidin-1-yl}-(R)-tetrahydrofuran-2-yl-methanone] | 1 to 99
Cc1nccc2cc(-c3ccc(CC4CCN(C(=O)C5CC5)CC4)cc3)ccc12 [Example 36, Cyclopropyl-{4-[4-(1-methyl-isoquinolin-6-yl)-benzyl]-piperidin-1-yl}-methanone] | 1 to 99
CCC(=O)N1CCC(C(OCCOC)c2ccc(-c3ccc4cccnc4c3C)cc2)CC1 (centres unmarked) [Example 81, 1-(4-{(2-Methoxyethoxy)-[4-(8-methyl-quinolin-7-yl)-phenyl]-methyl}-piperidin-1-yl)-propan-1-one] | 1 to 99
Cc1c(-c2ccc(CC3(F)CCN(C(=O)C4CC4)CC3)cc2)cnc2ccccc12 [Example 191, Cyclopropyl(4-fluoro-4-(4-(4-methylquinolin-3-yl)benzyl)piperidin-1-yl)methanone] | 1 to 99
O=C(c1ccc(-c2cnc3ccccc3c2)cc1)C1CCN(C(=O)[C@H]2CCCO2)CC1 [Example 49, [4-(4-Quinolin-3-yl-benzoyl)-piperidin-1-yl]-(R)-tetrahydrofuran-2-yl-methanone] | 1 to 99
CCC(=O)N1CCC(F)(C(OC)c2ccc(-c3ccc4cccnc4c3C)cc2)CC1 (centres unmarked) [Example 225, 1-(4-Fluoro-4-{methoxy-[4-(8-methyl-quinolin-7-yl)-phenyl]-methyl}-piperidin-1-yl)-propan-1-one] | 1 to 99
O=C(C1CC1)N1CCC(C2(c3ccc(-c4cnc5ccccc5c4)cc3)OCCO2)CC1 [Example 141, Cyclopropyl-(4-[2-(4-quinolin-3-yl-phenyl)-1,3-dioxolan-2-yl]-piperidin-1-yl)-methanone] | 100 to 999
CC(C)(c1ccc(-c2cnc3ccccc3c2)cc1)C1CCN(C(=O)C2CC2)CC1 [Example 204, Cyclopropyl(4-(2-(4-(quinolin-3-yl)phenyl)propan-2-yl)piperidin-1-yl)methanone] | 100 to 999
CCC(=O)N1CC=C(Cc2ccc(-c3ccc4cccnc4c3)cc2)CC1 [Example 164, 1-(4-(4-(quinolin-7-yl)benzyl)-5,6-dihydropyridin-1(2H)-yl)propan-1-one] | 100 to 999
CCC(=O)N1CCC(C(O)c2ccc(-c3ccc4cccnc4c3)cc2)CC1 (centres unmarked) [Example 125, 1-{4-[Hydroxy-(4-quinolin-7-yl-phenyl)-methyl]-piperidin-1-yl}-propan-1-one] | 1 to 99
CCC(=O)N1CCC(F)(C(OCCN2CCOCC2)c2ccc(-c3ccc4cccnc4c3C)cc2)CC1 (centres unmarked) [Example 227, 1-{4-Fluoro-4-[[4-(8-methyl-quinolin-7-yl)-phenyl]-(2-morpholin-4-yl-ethoxy)-methyl]-piperidin-1-yl}-propan-1-one] | 1 to 99
CC(c1ccc(-c2ccc3cccnc3c2Cl)cc1)C1CCN(C(=O)C2CC2)CC1 (centres unmarked) [Example 73, (4-{1-[4-(8-Chloroquinolin-7-yl)-phenyl]-ethyl}-piperidin-1-yl)-cyclopropylmethanone] | 1 to 99
